Experimental data as given in patent US20250262241A1, “METHODS TO IMPROVE STABILITY OF VIRUS TRANSDUCTION OF y8 T CELLS AND APPLICATIONS THEREOF” (UNICET BIOTECH CO. LLC., priority 2021, published 2025).

Tests used:
IKKε = biological target: T1, IKKε (Homo sapiens, UniProt Q14164); settings: cited from earlier work
T1 sequence (Q14164 1-716): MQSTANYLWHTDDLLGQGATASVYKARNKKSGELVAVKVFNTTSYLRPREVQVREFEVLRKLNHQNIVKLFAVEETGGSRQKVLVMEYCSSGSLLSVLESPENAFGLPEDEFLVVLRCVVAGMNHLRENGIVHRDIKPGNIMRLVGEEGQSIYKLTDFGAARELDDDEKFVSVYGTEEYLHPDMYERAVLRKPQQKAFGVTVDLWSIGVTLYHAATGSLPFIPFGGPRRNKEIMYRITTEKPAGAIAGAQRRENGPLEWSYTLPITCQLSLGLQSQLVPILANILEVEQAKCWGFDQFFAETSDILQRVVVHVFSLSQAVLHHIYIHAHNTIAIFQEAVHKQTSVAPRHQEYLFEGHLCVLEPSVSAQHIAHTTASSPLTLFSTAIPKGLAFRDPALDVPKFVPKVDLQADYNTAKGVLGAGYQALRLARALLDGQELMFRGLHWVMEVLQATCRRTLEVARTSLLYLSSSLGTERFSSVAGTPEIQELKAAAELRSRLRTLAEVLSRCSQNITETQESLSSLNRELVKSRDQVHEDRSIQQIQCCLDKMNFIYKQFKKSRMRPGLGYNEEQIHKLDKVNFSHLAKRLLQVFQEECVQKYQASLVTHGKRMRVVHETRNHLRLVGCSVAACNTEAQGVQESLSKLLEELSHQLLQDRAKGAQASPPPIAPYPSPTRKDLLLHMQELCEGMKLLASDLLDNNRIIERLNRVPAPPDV

γδ2 T cells = assay: CAR (B7H3) related lentivirus transduction of γδ2 T cells with small inhibitors: transduction rate; type: cell-based, human; settings: 0.6 uM, day 10; control below 10%
Experimental: VSV-G pseudotyped lentiviral vectors were applied in this method. 1×10^7 293T cells were plated into a poly-D-lysine coated 100 mm dish. Next day the cells were transfected with 6 μg of pCDH-EF1-MCS-T2A-copGFP plasmid (Addgene, Plasmid #72263) or pCDH-EF1-CAR-T2A-copGFP plasmid modified from pCDH-EF1-MCS-T2A-copGFP, 4 μg of pspAx2 (Addgene, Plasmid #12260), 2 μg of pCMV-VSV-G (Addgene, Plasmid #8454) using 30 ug PEI transfection regents. After 8 hours of transfection, the cell culture medium was changed. The supernatant were collected 48 hours and 72 hours later. Concentrated the virus with Lenti-X™ Concentrator (Takara) and monitored the virus titers by transduction of 293T cells and stored the concentrated virus in −80° C. until further use.
For lentivirus transduction, 1×10^CFU lentivirus diluted in 200 ul PBS were added in a 24-well plate which were pre-coated with RetroNectin reagent (Takara) and centrifugated by 2,000 g for 2 hours at 32° C. After centrifugation, removed the supernatant and washed the plate with PBS three times slightly.
For the virus transduction of γδ2 T cells, seeded 1×10^PBMCs which were in vitro cultured after 48 hours in the γδ2 T cell culture medium mentioned above (Gibco serum free medium with rhIL-2 and ZOL). Added or not small inhibitors and mixed well and concentrated the cells by 800 g for 10 mins at 32° C. The plates were incubated at 37° C., 5% CO2. Discarded the small inhibitors regent by changing the cell culture medium 24 hours later.
Calculate the cell number by an automated cell counter and the transduction rate (GFP positive rate) was analyzed by flow cytometry every 2 to 3 days. The transduction rate was monitored in the gate of γδ2 or γδ1 T cells.

For BX795, the IC50 (IKKε) is listed as 41 nM and the transduction rate (γδ2 T cells) is listed as “around 40%”.
